Experimental data taken from PubChem BioAssay AID330 (DTP/NCI, 2004).
“And” between values parts separate entries of the source, which are not always exact repeats. Equal values may be shown once. Toxic doses and inconclusive results are not listed. How the source made its calls: active means survival T/C of 150% or more; inactive means T/C below 125% in these data.

Tested on: P388 leukemia ip, CD2F1 mice, survival T/C
Assay: NCI In Vivo Anticancer Drug Screen. Data for tumor model P388 Leukemia (intraperitoneal) in CD2F1 (CDF1) mice
Details: endpoint: median survival time, higher = longer survival
Procedure, shortened: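 Mice carrying the transplanted tumor received test compound or vehicle. Survival was recorded in each group, and the value is the treated-group measurement divided by that of the vehicle-treated control group.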

[1] = dose: 10.0 mg/kg/injection, schedule: Q04DX003 (ip), vehicle: saline with Tween-80
[2] = dose: 100.0 mg/kg/injection, schedule: Q04DX003 (ip), vehicle: saline with Tween-80
[3] = dose: 200.0 mg/kg/injection, schedule: Q04DX003 (ip), vehicle: saline with Tween-80
[4] = dose: 50.0 mg/kg/injection, schedule: Q01DX005 (ip), vehicle: saline
[5] = dose: 25.0 mg/kg/injection, schedule: Q01DX009 (ip), vehicle: saline with Tween-80
[6] = dose: 50.0 mg/kg/injection, schedule: Q01DX009 (ip), vehicle: saline with Tween-80
[7] = dose: 12.5 mg/kg/injection, schedule: Q01DX005 (ip), vehicle: saline with Tween-80
[8] = dose: 100.0 mg/kg/injection, schedule: Q04DX003 (ip), vehicle: saline
[9] = dose: 200.0 mg/kg/injection, schedule: Q04DX003 (ip), vehicle: saline
[10] = dose: 50.0 mg/kg/injection, schedule: Q01DX009 (ip), vehicle: saline
[11] = dose: 100.0 mg/kg/injection, schedule: Q01DX009 (ip), vehicle: saline
[12] = dose: 200.0 mg/kg/injection, schedule: Q01DX009 (ip), vehicle: saline
[13] = dose: 60.0 mg/kg/injection, schedule: Q01DX005 (ip), vehicle: saline with Tween-80
[14] = dose: 120.0 mg/kg/injection, schedule: Q01DX005 (ip), vehicle: saline with Tween-80
[15] = dose: 240.0 mg/kg/injection, schedule: Q01DX005 (ip), vehicle: saline with Tween-80
[16] = dose: 100.0 mg/kg/injection, schedule: Q01DX009 (ip), vehicle: saline with Tween-80
[17] = dose: 50.0 mg/kg/injection, schedule: Q01DX009 (ip), vehicle: Klucel (hydroxypropylcellulose) (HPC)
[18] = dose: 100.0 mg/kg/injection, schedule: Q01DX009 (ip), vehicle: Klucel (hydroxypropylcellulose) (HPC)
[19] = dose: 200.0 mg/kg/injection, schedule: Q01DX009 (ip), vehicle: Klucel (hydroxypropylcellulose) (HPC)
[20] = dose: 50.0 mg/kg/injection, schedule: Q01DX005 (ip), vehicle: saline with Tween-80
[21] = dose: 100.0 mg/kg/injection, schedule: Q01DX005 (ip), vehicle: saline with Tween-80
[22] = dose: 200.0 mg/kg/injection, schedule: Q01DX005 (ip), vehicle: saline with Tween-80
[23] = dose: 200.0 mg/kg/injection, schedule: Q01DX009 (ip), vehicle: saline with Tween-80

Measured: T/C

CC(C)(C)[NH2+][B-](F)(F)F
inactive: dose: 6.25 mg/kg/injection, schedule: Q01DX005 (ip), vehicle: saline 94 % of control | dose: 12.5 mg/kg/injection, schedule: Q01DX005 (ip), vehicle: saline 103 % of control

C/C(=N\N=C(\[Se])N1CC(C)OC(C)C1)c1ccccn1 (stereo unspecified)
inactive: [1] 100 % of control | dose: 25.0 mg/kg/injection, schedule: Q04DX003 (ip), vehicle: saline with Tween-80 106 % of control | dose: 50.0 mg/kg/injection, schedule: Q04DX003 (ip), vehicle: saline with Tween-80 107 % of control | [2] 109 % of control | [3] 121 % of control

Cc1ccc([P+](CCN2C(=O)c3ccccc3C2=O)(c2ccc(C)cc2)c2ccc(C)cc2)cc1
inactive: dose: 0.39 mg/kg/injection, schedule: Q01DX009 (ip), vehicle: water 111 % of control | dose: 0.78 mg/kg/injection, schedule: Q01DX009 (ip), vehicle: water 121 % of control | dose: 1.56 mg/kg/injection, schedule: Q01DX009 (ip), vehicle: water 115 % of control | dose: 3.13 mg/kg/injection, schedule: Q01DX009 (ip), vehicle: water 121 % of control

O=CN(CCC(=O)O)c1ccccc1
inactive: [4] 106 % of control | dose: 100.0 mg/kg/injection, schedule: Q01DX005 (ip), vehicle: saline 113 % of control | dose: 200.0 mg/kg/injection, schedule: Q01DX005 (ip), vehicle: saline 107 % of control

CCCCCCCCCCCCCCCCS.[Ge]
inactive: dose: 12.5 mg/kg/injection, schedule: Q01DX009 (ip), vehicle: saline with Tween-80 106 % of control | [5] 98 % of control | [6] 104 % of control

C=C(Br)S(=O)(=O)OCCCl
inactive: dose: 6.25 mg/kg/injection, schedule: Q01DX005 (ip), vehicle: saline with Tween-80 105 % of control | [7] 104 % of control

CC(O)(CO)C(C)(O)C(C)(O)c1cn(O)c(=N)c(C(=O)OCc2ccccc2)n1 (stereo unspecified)
inactive: [8] 93 % of control | [9] 102 % of control

CC1CCC(O)C23OC4C(OC(C)(C)C4C12C)C3=O (stereo unspecified) (tested in a mixture with another compound)
inactive: [10] 96 % of control | [11] 89 % of control | [12] 94 % of control

COc1cccc(/C=C/c2cc3c(cc2Br)OCO3)c1
inactive: dose: 50.0 mg/kg/injection, schedule: Q01DX005 (ip), vehicle: Klucel (hydroxypropylcellulose) (HPC) 102 % of control | dose: 100.0 mg/kg/injection, schedule: Q01DX005 (ip), vehicle: Klucel (hydroxypropylcellulose) (HPC) 108 % of control | dose: 200.0 mg/kg/injection, schedule: Q01DX005 (ip), vehicle: Klucel (hydroxypropylcellulose) (HPC) 101 % of control

CC/S(=N\S(=O)(=O)c1ccc(C)cc1)c1cccc[n+]1[O-] (stereo unspecified)
inactive: [13] 100 % of control | [14] 110 % of control | [15] 100 % of control

CN=Cc1ccc(OC)cc1
inactive: [5] 95 % of control | [6] 95 % of control | [16] 95 % of control

COc1ccc(C(Nc2ccccn2)c2cc(C(C)(C)C)cc(C(C)(C)C)c2O)cc1 (stereo unspecified)
inactive: dose: 50.0 mg/kg/injection, schedule: Q01DX005 (ip), vehicle: distilled water + alcohol 105 % of control | dose: 100.0 mg/kg/injection, schedule: Q01DX005 (ip), vehicle: distilled water + alcohol 100 % of control | dose: 200.0 mg/kg/injection, schedule: Q01DX005 (ip), vehicle: distilled water + alcohol 109 % of control

Clc1cccc(Cl)c1C(Cl)Cl
inactive: [2] 95 % of control | [3] 109 % of control | dose: 400.0 mg/kg/injection, schedule: Q04DX003 (ip), vehicle: saline with Tween-80 100 % of control

CC(C)(C)c1ccc(C(=O)Nc2ccc(Cl)cc2Oc2ccccc2)cc1
inactive: [17] 93 % of control | [18] 97 % of control | [19] 86 % of control

CCCCCC(=N\N=C(N)N)/C(C)=N/N=C(N)N
inactive: [7] 98 % of control | dose: 25.0 mg/kg/injection, schedule: Q01DX005 (ip), vehicle: saline with Tween-80 97 % of control | [20] 101 % of control | [4] 100 % of control

c1ccc(Nc2nnc3nc(-c4ccccc4)c(-c4ccccc4)nn23)cc1
inactive: [20] 91 % of control | [21] 90 % of control | [22] 102 % of control

CC(C)(C)OC(=O)NC(CCCCNC(=O)C(F)(F)F)C(=O)ON1C(=O)CCC1=O (stereo unspecified)
inactive: [6] 102 % of control | [16] 99 % of control | [23] 106 % of control

CC(/C=N\Nc1ccc(C(=O)O)cc1)=N/NC(=O)CC#N
inactive: [10] 88 % of control | [11] 86 % of control | [12] 88 % of control

O=C1C(Cl)=C(Cl)C(=O)c2ccccc21
inactive: dose: 5.0 mg/kg/injection, schedule: Q01DX009 (ip), vehicle: saline with Tween-80 109 % of control | dose: 5.0 mg/kg/injection, schedule: Q04DX003 (ip), vehicle: saline with Tween-80 100 % of control | dose: 10.0 mg/kg/injection, schedule: Q01DX009 (ip), vehicle: saline with Tween-80 109 % of control | [1] 100 % of control | dose: 20.0 mg/kg/injection, schedule: Q01DX009 (ip), vehicle: saline with Tween-80 109 % of control | dose: 20.0 mg/kg/injection, schedule: Q04DX003 (ip), vehicle: saline with Tween-80 95 % of control

COc1ccc2c(c1OC)CN(C)[C@]13ON(c4ccccc4)[C@H](C[C@]21C)c1cc2c(cc13)OCO2
inactive: dose: 100.0 mg/kg/injection, schedule: Q04DX002 (ip), vehicle: saline with Tween-80 98 % of control | dose: 200.0 mg/kg/injection, schedule: Q04DX002 (ip), vehicle: saline with Tween-80 88 % of control | dose: 400.0 mg/kg/injection, schedule: Q04DX002 (ip), vehicle: saline with Tween-80 95 % of control

CN=NNc1ccc(C)cc1
inactive: dose: 12.5 mg/kg/injection, schedule: Q01DX009 (ip), vehicle: distilled water + Tween-80 96 % of control and 97 % of control | dose: 25.0 mg/kg/injection, schedule: Q01DX009 (ip), vehicle: distilled water + Tween-80 100 % of control | dose: 50.0 mg/kg/injection, schedule: Q01DX009 (ip), vehicle: distilled water + Tween-80 100 % of control and 124 % of control | dose: 100.0 mg/kg/injection, schedule: Q01DX009 (ip), vehicle: distilled water + Tween-80 123 % of control

CCOC(=O)/C=C(/CC(=O)OCC)OCC
inactive: [10] 100 % of control | [11] 89 % of control | [12] 90 % of control | dose: 400.0 mg/kg/injection, schedule: Q01DX009 (ip), vehicle: saline 101 % of control

Cc1ccc(C(=S)N=P(c2ccccc2)(c2ccccc2)c2ccccc2)cc1
inactive: [20] 99 % of control | [21] 107 % of control | [22] 100 % of control

Cc1cccc(Nc2cc(Cl)nc(SCC(=O)O)n2)c1C
inactive: [10] 100 % of control | [11] 98 % of control | [12] 100 % of control

CCc1ccc[n+](-c2ccncc2CC)c1
inactive: dose: 15.0 mg/kg/injection, schedule: Q01DX005 (ip), vehicle: saline 96 % of control | dose: 30.0 mg/kg/injection, schedule: Q01DX005 (ip), vehicle: saline 100 % of control | dose: 60.0 mg/kg/injection, schedule: Q01DX005 (ip), vehicle: saline 106 % of control and 88 % of control

O=C1CCC(=O)Nc2ccc3nc4ccccc4c(c3c2)SCCCCCCCCCCCCSc2c3ccccc3nc3ccc(cc23)N1
inactive: [20] 110 % of control | [21] 97 % of control | [22] 107 % of control

Cc1ccnc(NC(O)C(Cl)(Cl)Cl)c1 (stereo unspecified)
inactive: dose: 25.0 mg/kg/injection, schedule: Q01DX009 (ip), vehicle: Klucel (hydroxypropylcellulose) (HPC) 100 % of control | [17] 100 % of control | [18] 98 % of control | [19] 100 % of control

O=C(CCC(=O)C1CCCC1=O)Nc1cccc([N+](=O)[O-])c1 (stereo unspecified)
inactive: [13] 102 % of control | [14] 102 % of control | [15] 101 % of control

c1nnc(NCNc2nncs2)s1
active: [8] 240 % of control
inactive: [9] 109 % of control

CC(C)CNC(=O)CNC(=O)C=[N+]=[N-]
inactive: [6] 104 % of control | [16] 104 % of control | [23] 104 % of control
